ChEMBL document CHEMBL5154646, “Structure-guided optimization of 1H-imidazole-2-carboxylic acid derivatives affording potent VIM-Type metallo-β-lactamase inhibitors” (Eur J Med Chem, 2022)
pIC50: −log10 of the molar value.

Key:
Escherichia coli [1] = assay: Potentiation of meropenem-induced antibacterial activity against Escherichia coli C1580 expressing VIM-2 assessed as fold reduction in meropenem MIC at 10 ug/ml incubated for 18 to 20 hrs by CLSI based broth microtiter dilution method; type: functional; settings: dose 10 µg/ml; time 18-20 hrs
Escherichia coli [2] = assay: Potentiation of meropenem-induced antibacterial activity against Escherichia coli C1541 expressing IMP-1 assessed as meropenem MIC at 10 ug/ml incubated for 18 to 20 hrs by broth microtiter dilution method (reference value: 32 ug/ml); type: functional; settings: dose 10 µg/ml, time 18-20 hrs
[3] = Inhibition of bacterial recombinant full length N-terminal-TEV-His6-tagged VIM-5 expressed in Escherichia coli Transetta using FC-5 as substrate preincubated with enzyme for 10 mins followed by substrate addition by fluorescence based analysis; parameters: species or system Bacteria
Escherichia coli [4] = assay: Potentiation of meropenem-induced antibacterial activity against Escherichia coli C1541 expressing VIM-2 assessed as fold reduction in meropenem MIC at 10 ug/ml incubated for 18 to 20 hrs by CLSI based broth microtiter dilution method; type: functional; settings: dose 10 µg/ml; time 18-20 hrs
Escherichia coli [5] = assay: Potentiation of meropenem-induced antibacterial activity against Escherichia coli C1542 expressing VIM-2 assessed as fold reduction in meropenem MIC at 10 ug/ml incubated for 18 to 20 hrs by CLSI based broth microtiter dilution method; type: functional; settings: dose 10 µg/ml; time 18-20 hrs
Escherichia coli [6] = assay: Potentiation of meropenem-induced antibacterial activity against Escherichia coli C1580 expressing VIM-2 assessed as meropenem MIC at 10 ug/ml incubated for 18 to 20 hrs by CLSI based broth microtiter dilution method (reference value: 32 ug/ml); type: functional; settings: dose 10 µg/ml, time 18-20 hrs
Pseudomonas aeruginosa [7] = assay: Potentiation of meropenem-induced antibacterial activity against Pseudomonas aeruginosa 5621 expressing VIM-2 assessed as meropenem MIC at 100 ug/ml incubated for 18 to 20 hrs in presence of meropenem by CLSI based broth microtiter dilution method (reference value: 64 ug/ml); type: functional; settings: dose 100 µg/ml, time 18-20 hrs
[8] = Inhibition of bacterial IMP-1 (1 to 246 residues) expressed in Escherichia coli Transetta (DE3) using FC-5 as substrate preincubated with enzyme for 10 mins followed by substrate addition by fluorescence based analysis; parameters: species or system Bacteria
Escherichia coli [9] = assay: Potentiation of meropenem-induced antibacterial activity against Escherichia coli C1542 expressing VIM-2 assessed as meropenem MIC at 10 ug/ml incubated for 18 to 20 hrs by CLSI based broth microtiter dilution method (reference value: 16 ug/ml); type: functional; settings: dose 10 µg/ml, time 18-20 hrs
Pseudomonas aeruginosa [10] = assay: Potentiation of meropenem-induced antibacterial activity against Pseudomonas aeruginosa 5621 expressing VIM-2 assessed as fold reduction in meropenem MIC at 100 ug/ml incubated for 18 to 20 hrs by CLSI based broth microtiter dilution method; type: functional; settings: dose 100 µg/ml; time 18-20 hrs
Escherichia coli [11] = assay: Potentiation of meropenem-induced antibacterial activity against Escherichia coli C1541 expressing IMP-1 assessed as fold reduction in meropenem MIC at 10 ug/ml incubated for 18 to 20 hrs by CLSI based broth microtiter dilution method; type: functional; settings: dose 10 µg/ml; time 18-20 hrs
Escherichia coli [12] = assay: Potentiation of meropenem-induced antibacterial activity against Escherichia coli C1541 expressing VIM-2 assessed as meropenem MIC at 10 ug/ml incubated for 18 to 20 hrs by CLSI based broth microtiter dilution method (reference value: 16 ug/ml); type: functional; settings: dose 10 µg/ml, time 18-20 hrs
[13] = Inhibition of bacterial NDM-1 (1 to 270 residues) expressed in Escherichia coli Transetta (DE3) using FC-5 as substrate preincubated with enzyme for 10 mins followed by substrate addition by fluorescence based analysis; parameters: species or system Bacteria
Pseudomonas aeruginosa [14] = assay: Potentiation of meropenem-induced antibacterial activity against Pseudomonas aeruginosa W35 expressing VIM-2 assessed as meropenem MIC at 100 ug/ml incubated for 18 to 20 hrs in presence of meropenem by CLSI based broth microtiter dilution method (reference value: 64 ug/ml); type: functional; settings: dose 100 µg/ml, time 18-20 hrs
Pseudomonas aeruginosa [15] = assay: Potentiation of meropenem-induced antibacterial activity against Pseudomonas aeruginosa W35 expressing VIM-2 assessed as fold reduction in meropenem MIC at 100 ug/ml incubated for 18 to 20 hrs by CLSI based broth microtiter dilution method; type: functional; settings: dose 100 µg/ml; time 18-20 hrs
[16] = Inhibition of bacterial VIM-2 (27 to 266 residues) expressed in Escherichia coli Transetta (DE3) using FC-5 as substrate preincubated with enzyme for 10 mins followed by substrate addition by fluorescence based analysis; parameters: species or system Bacteria
[17] = Inhibition of bacterial recombinant full length C-terminal-TEV-His6-tagged VIM-1 expressed in Escherichia coli Transetta using FC-5 as substrate preincubated with enzyme for 10 mins followed by substrate addition by fluorescence based analysis; parameters: species or system Bacteria
Escherichia coli [18] = assay: Synergistic antibacterial activity against Escherichia coli C1541 expressing VIM-2 assessed as fractional inhibitory concentration index incubated for 18 to 20 hrs in presence of meropenem by checkerboard microdilution assay; type: functional; settings: time 18-20 hrs
Escherichia coli [19] = assay: Synergistic antibacterial activity against Escherichia coli C1541 expressing VIM-2 assessed as fractional inhibitory concentration index incubated for 18 to 20 hrs in presence of meropenem and 1 uM of zinc sulfate by checkerboard microdilution assay; type: functional; settings: time 18-20 hrs
Escherichia coli [20] = assay: Synergistic antibacterial activity against Escherichia coli C1541 expressing VIM-2 assessed as fractional inhibitory concentration index incubated for 18 to 20 hrs in presence of meropenem and 100 uM of zinc sulfate by checkerboard microdilution assay; type: functional; settings: time 18-20 hrs
[21] = Inhibition of bacterial VIM-2 (27 to 266 residues) expressed in Escherichia coli Transetta (DE3) using FC-5 as substrate preincubated with enzyme for 10 mins followed by substrate addition in presence of 100 uM Zn2+ by fluorescence based analysis; parameters: species or system Bacteria
[22] = Solubility of the compound in water; type: physicochemical
[23] = Inhibition of bacterial VIM-2 (27 to 266 residues) expressed in Escherichia coli Transetta (DE3) using FC-5 as substrate preincubated with enzyme for 10 mins followed by substrate addition in presence of 1 uM Zn2+ by fluorescence based analysis; parameters: species or system Bacteria
Pseudomonas aeruginosa [24] = assay: Synergistic antibacterial activity against Pseudomonas aeruginosa W35 expressing VIM-2 assessed as fractional inhibitory concentration index incubated for 18 to 20 hrs in presence of meropenem by checkerboard microdilution assay; type: functional; settings: time 18-20 hrs
Escherichia coli [25] = assay: Potentiation of meropenem-induced antibacterial activity against Escherichia coli C1541 expressing IMP-1 assessed as fold reduction in meropenem MIC at 100 ug/ml incubated for 18 to 20 hrs by CLSI based broth microtiter dilution method; type: functional; settings: dose 100 µg/ml; time 18-20 hrs

Row | Structure (SMILES) | MIC (Escherichia coli [2]) | pIC50 [3] | MIC (Escherichia coli [6]) | MIC (Pseudomonas aeruginosa [7]) | pIC50 [8] | MIC (Escherichia coli [9]) | MIC (Escherichia coli [12]) | pIC50 [13] | MIC (Pseudomonas aeruginosa [14]) | pIC50 [16] | pIC50 [17] | fold change (FC) (Escherichia coli [1]) | fold change (FC) (Escherichia coli [4]) | fold change (FC) (Escherichia coli [5]) | fold change (FC) (Pseudomonas aeruginosa [10]) | fold change (FC) (Escherichia coli [11]) | fold change (FC) (Pseudomonas aeruginosa [15]) | other results
1 | C=CCCn1ccnc1C(=O)O | 32 µg/mL | 5.33 | 32 µg/mL | – | < 3.52 | 8 µg/mL | 16 µg/mL | < 3.52 | – | 5.98 | 4.83 | 1 | 1 | 2 | – | 1 | – | –
2 | C=CCCn1c(C)cnc1C(=O)O | 32 µg/mL | 5.42 | 8 µg/mL | – | 4.31 | 2 µg/mL | 1 µg/mL | 3.84 | – | 6.10 | 4.43 | 4 | 16 | 8 | – | 1 | – | –
3 | O=C(O)c1nccn1Cc1cc(Br)cs1 | 32 µg/mL | 5.61 | 4 µg/mL | 64 µg/mL | 4.69 | 4 µg/mL | 2 µg/mL | 3.95 | 32 µg/mL | 6.37 | 4.60 | 8 | 8 | 4 | 1 | 1 | 2 | –
4 | Nc1nc2c(Cn3ccnc3C(=O)O)cccc2s1 | 32 µg/mL | 5.98 | 1 µg/mL | 64 µg/mL | 3.66 | < 0.25 µg/mL | 0.5 µg/mL | 3.88 | 64 µg/mL | 6.80 | 5.72 | 32 | 32 | >64 | 1 | 1 | 1 | –
5 | Cc1cnc(C(=O)O)n1Cc1ccccc1 | 32 µg/mL | 5.66 | 1 µg/mL | 32 µg/mL | 4.06 | 0.5 µg/mL | < 0.25 µg/mL | 4.53 | 16 µg/mL | 6.32 | 5.50 | 32 | >64 | 32 | 2 | 1 | 4 | –

The next lines start with results.

Row | MIC (Escherichia coli [2]) | pIC50 [3] | MIC (Escherichia coli [6]) | MIC (Pseudomonas aeruginosa [7]) | pIC50 [8] | MIC (Escherichia coli [9]) | MIC (Escherichia coli [12]) | pIC50 [13] | MIC (Pseudomonas aeruginosa [14]) | pIC50 [16] | pIC50 [17] | Structure (SMILES) | fold change (FC) (Escherichia coli [1]) | fold change (FC) (Escherichia coli [4]) | fold change (FC) (Escherichia coli [5]) | fold change (FC) (Pseudomonas aeruginosa [10]) | fold change (FC) (Escherichia coli [11]) | fold change (FC) (Pseudomonas aeruginosa [15]) | other results
6 | 32 µg/mL | 5.81 | 16 µg/mL | 64 µg/mL | 4.49 | 16 µg/mL | 16 µg/mL | 4.20 | 32 µg/mL | 6.32 | 5.38 | O=C(O)c1nccn1Cc1ccccc1 | 2 | 1 | 1 | 1 | 1 | 2 | –
7 | 32 µg/mL | 6.92 | 1 µg/mL | 64 µg/mL | 4.52 | < 0.25 µg/mL | < 0.25 µg/mL | 3.64 | 32 µg/mL | 6.54 | 5.06 | N#Cc1ccc(Cn2ccnc2C(=O)O)cc1 | 32 | >64 | >64 | 1 | 1 | 2 | –
8 | 32 µg/mL | 6.42 | < 0.25 µg/mL | 64 µg/mL | 4.84 | < 0.25 µg/mL | < 0.25 µg/mL | 3.75 | 16 µg/mL | 7.72 | 4.87 | Nc1nc2ccc(Cn3ccnc3C(=O)O)cc2s1 | >128 | >64 | >64 | 1 | 1 | 4 | fractional inhibitory concentration index (FICI) (Escherichia coli [18]): 0.02; fractional inhibitory concentration index (FICI) (Escherichia coli [19]): 0.02; fractional inhibitory concentration index (FICI) (Escherichia coli [20]): 0.03; pIC50 [21]: 7.12; solubility [22]: < 2500 µg/mL; pIC50 [23]: 7.85; fractional inhibitory concentration index (FICI) (Pseudomonas aeruginosa [24]): 0.125
9 | 32 µg/mL | 6.08 | 1 µg/mL | 64 µg/mL | 4.96 | < 0.25 µg/mL | 0.5 µg/mL | 3.80 | 16 µg/mL | 6.42 | 4.89 | COc1ccc(Cn2ccnc2C(=O)O)cc1 | 32 | 32 | >64 | 1 | 1 | 4 | –
10 | 16 µg/mL | 7.28 | 4 µg/mL | 32 µg/mL | 7.07 | 1 µg/mL | 0.5 µg/mL | 4.00 | 16 µg/mL | 7.85 | 5.86 | O=C(O)c1nccn1Cc1cc(Br)cc(Br)c1 | 8 | 32 | 16 | 2 | 2 | 4 | fractional inhibitory concentration index (FICI) (Escherichia coli [18]): 0.05; fractional inhibitory concentration index (FICI) (Escherichia coli [19]): 0.06; fractional inhibitory concentration index (FICI) (Escherichia coli [20]): 0.06; pIC50 [21]: 6.96; fold change (FC) (Escherichia coli [25]): 8; pIC50 [23]: 7.32
11 | 32 µg/mL | 4.74 | 16 µg/mL | 32 µg/mL | 4.12 | 16 µg/mL | 8 µg/mL | 3.78 | 16 µg/mL | 5.41 | 5.07 | NCc1ccc(Cn2ccnc2C(=O)O)cc1 | 2 | 2 | 1 | 2 | 1 | 4 | –
12 | 32 µg/mL | 5.95 | 4 µg/mL | 64 µg/mL | 5.02 | < 0.25 µg/mL | 1 µg/mL | 3.93 | 16 µg/mL | 6.77 | 5.30 | O=C(O)c1nccn1Cc1ccc(O)cc1 | 8 | 16 | >64 | 1 | 1 | 4 | –
